Laboratory results published in patent US20210228551A1, “THERAPEUTIC AGENT FOR HUMORAL IMMUNITY-RELATED DISEASES IN MATERNOFETAL RELATIONSHIP” (priority 2018, published 2021).
Entries after “also recorded” stand apart in the source; their conditions may differ.

What was measured:
Format in all cases: in vivo, human
Th1 cells = assay: Analysis of Th1 cells and Th2 cells by flow cytometry; details: maternal blood; week 28 of pregnancy; tacrolimus 4 mg/day oral
Method: For the purpose of evaluating the baseline value of the Th1/Th2 cell ratio, a total of 10 ml of venous blood was collected. Th1 cells and Th2 cells were determined by detecting the production of intracellular interferon (IFN)-γ and IL-4. Specific staining of lymphocytes was performed by incubating whole blood together with anti-CD4-PC5 or anti-CD8-PC5-conjugated monoclonal antibody (rAbs) (Beckman Coulter, Inc., Fullerton, Ca, USA). Red blood cells (RBCs) were removed by hemolysis (using FACS Lysing solution; Becton, Dickinson and Company, BD 134 Biosciences, Franklin Lake, N.J., USA), and lymphocytes were analyzed using flow cytometry (FACSCalibur; Becton, Dickinson and Company). Activated whole blood samples were surface-stained using anti-CD4-PC5-conjugate (Abs), and then RBC hemolysis and specific intracellular staining using FastImmune (trademark) IFN-γ-FITC/IL-4-PE (Becton, Dickinson and Company) were carried out in sequence according to the manufacturer's instructions for use. Th1 cells were defined as CD4^+ lymphocytes accompanied by intracellular IFN-γ but not by intracellular IL-4. Th2 cells were detected as CD4^+ lymphocytes accompanied by intracellular IL-4 but not by intracellular IFN-γ. The ratio of intracellular IFN-γ-positive Th cells with respect to intracellular IL-4-positive Th cells was expressed as the Th1/Th2 cell ratio.

[1] = test system: infecundity considered to be caused by an abnormality in the immune system; assay: Tacrolimus treatment of infecundity: embryo transplantation outcome; details: tacrolimus 4 mg/day oral (2 mg morning, 2 mg evening); after five unsuccessful embryo transplantations
Method: Two years later, […] hoped to have a second child but suffered from infecundity and was treated for sterility by in vitro fertilization; however, since the treatment was unsuccessful after five embryo transplantations, a close examination of the immune system was conducted. At that time, a marked increase (24.9) in the Th1/Th2 (Th1 32.4, Th2 1.3) ratio was recognized, the illness was judged as infecundity considered to be caused by an abnormality in the immune system, and a tacrolimus treatment was selected.

anti-D antibody = assay: Anti-D antibody titer by indirect Coombs test in a patient treated with tacrolimus
Method: (§1) The measurement is carried out by the indirect Coombs test. The indirect Coombs test is a test in which an anti-immunoglobulin antibody is added to a mixture of the blood serum of a patient and the blood of a healthy person to examine whether a hemagglutination reaction occurs (irregular antibody present in the blood serum is detected) (for the Coombs test, see, for example, Nissan Women's Journal Vol. 59, No. 10, N-617-N-623). The patient is a person having blood type A. The patient suffering from a blood type incompatible pregnancy with negative maternal Rho (D) and positive fetal Rho (D) was subjected to the following treatments. That is, at the time of the first pregnancy, anti-D immunoglobulin was not administered during pregnancy, sensitization was effected before delivery, and the anti-D antibody titer at the time of delivery was 8-fold. In week 39, they gave birth by emergency cesarean section due to placental abruption. […] The anti-D antibody titer obtained immediately after the establishment of pregnancy was 4-fold; however, the titer reached 16-fold in week 24 and reached 32-fold in week 26 (FIG. 1, upper part). After that, migration of fetal antigens to the parent's body via the placenta was assumed to further increase, and preparation of plasmapheresis and fetal blood transfusion was initiated in preparation for a rapid increase in the anti-D antibody titer. […] Furthermore, the blood flow velocity in the middle cerebral artery and the estimated body weight of the fetus were measured by fetal ultrasonography.

[2] = Concentration of tacrolimus in the cord blood by chemiluminescence immunoassay (ECLIA); details: cord blood at delivery, maternal dose 5 mg/day oral
[3] = test system: blood type incompatible pregnancy with negative maternal Rho (D) and positive fetal Rho (D); assay: Treatment of blood type incompatible pregnancy with tacrolimus: fetal and neonatal outcome
Text: as §1, with “The” for “The measurement is carried out by the indirect Coombs test. The indirect Coombs test is a test in which an anti-immunoglobulin antibody is added to a mixture of the blood serum of a patient and the blood of a healthy person to examine whether a hemagglutination reaction occurs (irregular antibody present in the blood serum is detected) (for the Coombs test, see, for example, Nissan Women's Journal Vol. 59, No. 10, N-617-N-623). The”

[4] = fetal ultrasonography, tacrolimus 4 then 5 mg/day oral

maternal and fetal conditions / course of pregnancy ([3]; tacrolimus 4 then 5 mg/day oral): stable without complications
SMILES: C=CCC1/C=C(\C)CC(C)CC(OC)C2OC(O)(C(=O)C(=O)N3CCCCC3C(=O)OC(/C(C)=C/C3CCC(O)C(OC)C3)C(C)C(O)CC1=O)C(C)CC2OC (centres unmarked) [tacrolimus, 17-Allyl-1,14-dihydroxy-12-[2-(4-hydroxy-3-methoxycyclohexyl)-1-methylvinyl]-23,25-dimethoxy-13,19,21,27-tetramethyl-11,28-dioxa-4-azatricyclo[22.3.1.04,9]octacos-18-ene-2,3,10,16-tetraone]
Th1 cell population (Th1 cells): showed a tendency of increase again
establishment of pregnancy [1]: Pregnancy was established by a single embryo transplantation
anti-D antibody titer in the cord blood (anti-D antibody; cord blood at delivery): double
course of anti-D antibody titer / anti-D antibody production (anti-D antibody; maternal, after dose increase to 5 mg/day in week 28 of pregnancy): the titer did not further increase and was stabilized; also recorded: the expected increase in the anti-D antibody titer did not occur at all; also recorded: the production of anti-D antibody was also suppressed
anti-D antibody titer (anti-D antibody; maternal, after dose increase to 5 mg/day oral (week 28) until delivery): 32 fold
anti-D antibody titer (anti-D antibody; maternal, immediately after the establishment of pregnancy, tacrolimus 4 mg/day oral): 4 fold
anti-D antibody titer (anti-D antibody; maternal, week 24 of pregnancy, tacrolimus 4 mg/day oral): 16 fold
anti-D antibody titer (anti-D antibody; maternal, week 26 of pregnancy, tacrolimus 4 mg/day oral): 32 fold
concentration of tacrolimus in the cord blood [2]: lower than or equal to the detection limit value
malformations and physical functions of the child ([3]; child at birth, maternal tacrolimus during the entire pregnancy): no external malformations or visceral malformations and no problem with physical functions
birth weight of the child ([3]; delivery on day 2 of week 37): 2834 g
fetal anemia (increased blood flow velocity in the middle cerebral artery) [3, 4]: without observing any fetal anemia; also recorded: fetal anemia did not develop during the entire course of pregnancy
growth of the fetus (estimated body weight) [3, 4]: The body weight smoothly increased; also recorded: growth of the child occurred without any problem
